The test system of this test is yellow laccase. The note with it: 35 °C; pH of the kinetic assay not stated; printed ABTS range 40–600 mM.

`CCn1c(=NN=c2sc3cc(S(=O)(=O)O)ccc3n2CC)sc2cc(S(=O)(=O)O)ccc21` [ABTS, 2,2′-Azinobis-(3-ethylbenzothiazoline-6-sulfonic acid)]: the Km – broadly, the concentration of substrate that gives half-maximal velocity – was 71.4 µM.

These data come from paper PMC4434416, “Purification and biochemical characterization of a newly produced yellow laccase from Lentinus squarrosulus MR13” (3 Biotech, 2014).
